Publication PMC12186339, “Assessment of the structure–activity relationship of analogs of the Naegleria fowleri enolase inhibitor HEX” (RSC Medicinal Chemistry, 2025)
Where two headings read alike, the source gives them in different places.

Legend:
[1] = test system: N. fowleri strain TY (ATCC 30107) trophozoites; assay: In vitro growth inhibition of N. fowleri trophozoites (CellTiter-Glo); type: cell-based, Naegleria fowleri; settings: for EC50: Naegleria fowleri, read-out: N. fowleri EC50
Experimental: N. fowleri strain TY (ATCC 30107) trophozoites were routinely cultured in T-75 TC-treated flasks at 37 °C and 5% CO2 in media that has been previously described.[10] All compounds described were reconstituted in DMSO for testing, with final concentrations kept at <1% in the assays. To test the inhibitory activity of the compounds on cell growth, 1 × 10^4 cells per mL were seeded in white 96-well plates with 100 μM compound. Cells and compound were incubated at 37 °C and 5% CO2 for 48 hours. CellTiter-Glo reagent (Promega G7570) was then added to each well and luminescence was read using a BioTek Synergy H1 Microplate Reader. […] All reactions were performed in technical triplicate. If growth inhibition was <50% at the concentration tested, EC50 was reported to be above that value.

NfENO = NfENO (Naegleria fowleri, UniProt A0A6A5BXC3); assay: NfENO pyruvate kinase/lactate dehydrogenase-coupled activity assay; type: biochemical; settings: at 100 μM
Chain of NfENO (A0A6A5BXC3 entry or part of it): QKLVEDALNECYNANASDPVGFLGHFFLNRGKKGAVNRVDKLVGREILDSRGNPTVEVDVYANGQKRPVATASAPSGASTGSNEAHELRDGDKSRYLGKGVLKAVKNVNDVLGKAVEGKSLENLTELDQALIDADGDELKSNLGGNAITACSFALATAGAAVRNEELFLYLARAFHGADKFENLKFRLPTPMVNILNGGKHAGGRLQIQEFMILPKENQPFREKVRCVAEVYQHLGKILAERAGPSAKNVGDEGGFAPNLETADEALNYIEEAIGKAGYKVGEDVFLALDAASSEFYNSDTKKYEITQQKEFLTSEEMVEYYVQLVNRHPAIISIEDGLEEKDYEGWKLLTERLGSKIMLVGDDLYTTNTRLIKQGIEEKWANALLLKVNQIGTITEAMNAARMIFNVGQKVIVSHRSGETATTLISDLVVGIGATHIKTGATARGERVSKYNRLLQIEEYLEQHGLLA
Experimental: Using the full-length protein (NF0118810, AmoebaDB, https://amoebadb.org/amoeba/app/), an E. coli codon-optimized construct was designed to express a truncated version of NfENO (residues 44–512) to improve solubility.[10]NfENO was heterologously expressed in BL2(DE3)R3 Rosetta cells and expression induced with 0.5 mM isopropyl-β-D-1-thiogalactopyranoside (IPTG) overnight at 37 °C. Cells were lysed using a lysozyme and 10% Triton X-100 based lysis buffer and purified with Ni-NTA agarose beads (Qiagen). Activity assays were conducted in triplicate using a pyruvate kinase/lactate dehydrogenase-coupled assay. Approximately 75 nM of NfENO in assay buffer (100 mM HEPES, pH 8.5, 3.3 mM MgSO4, 120 mM KCl, 1.75 mM ADP, 1 U pyruvate kinase/lactate dehydrogenase, and 0.4 mM NADH) was added to black 96-well plates. For assays in the presence of inhibitor, compounds were resuspended in DMSO, added to the wells, and incubated with enzyme in assay buffer for 15 minutes at room temperature. DMSO was included as a vehicle control. Assays were initiated by addition of substrate solution (3.75 mM 2-PG) and fluorescence emission at 460 nm after excitation at 360 nm was monitored every 20 seconds for 4 minutes using a Biotek Synergy H1 microplate reader. The rate of fluorescence reduction was measured to monitor the conversion of NADH to NAD+. […]

[2] = Human cell growth inhibition (CellTiter Blue); type: cell-based; settings: HEK-293, 48 hours, read-out: Human cell line CC50
Experimental: To determine the amount of agent required to inhibit human cell growth 50% (the CC50 value), human embryonic kidney cells (ATCC HEK-293) were seeded at 5 × 10^4 cells per well in 100 μL of Dulbecco's modified Eagle's medium in tissue culture-treated clear bottom black 96 well plates (Gibco). Cells were incubated with compounds for 48 hours, followed by addition of CellTiter Blue (Promega, Madison, WI, USA) After a 3 hour incubation and equilibration for 15 minutes at room temperature, fluorescence (Ex: 560 nm, EM: 590 nm) was measured and the percentage of growth inhibition was calculated using untreated controls.

[3] = ATCC30107, trophozoites, 48 hours

Row | SMILES | EC50 ([1]; ATCC30107, 48 h) [µM] | EC50 [1, 3] [µM] | also measured
1 | NN1CCCC(P(=O)(O)O)C1=O (stereo not shown) [Compound 1, (1-Amino-2-oxopiperidin-3-yl)phosphonic acid] | > 25 | – | –
2 | O=C1SCCCC1P(=O)(O)O (stereo not shown) [Compound 7, (2-Oxotetrahydro-2H-thiopyran-3-yl)phosphonic acid] | > 25 | – | effect on NfENO (NfENO): no effect
3 | O=C1C(P(=O)(O)O)c2ccccc2CN1O (stereo not shown) [Compound 2, (2-Hydroxy-3-oxo-1,2,3,4-tetrahydroisoquinolin-4-yl)phosphonic acid] | – | > 25 | activity on N. fowleri growth ([1]; at higher concentrations than 25 μM (100 μM screen), 48 hours): modest activity; CC50 at 48 h ([2]; HEK-293 cells): > 25 µM
4 | O=C1C(S(=O)(=O)O)CCCN1O (stereo not shown) [Compound 4, 1-Hydroxy-2-oxopiperidine-3-sulfonic acid] | – | > 25 | –
5 | O=C1C(P(=O)(O)O)CCCN1O (stereo not shown) [HEX, (1-hydroxy-2-oxopiperidin-3-yl)phosphonic acid, reference compound] | 0.21 ± 0.02 | – | CC50 at 48 h [2]: > 100 µM
6 | O=C1C(P(=O)(O)O)CCCN1CCO (stereo not shown) [Compound 3, (1-(2-Hydroxyethyl)-2-oxopiperidin-3-yl)phosphonic acid] | > 25 | – | –
7 | O=C1NCCCC1P(=O)(O)O (stereo not shown) [Compound 6, (2-Oxopiperidin-3-yl)phosphonic acid] | > 25 | – | effect on NfENO (NfENO): no effect
8 | O=C1[C@@H](P(=O)(O)O)[C@@H]2CCCC[C@H]2CN1O [Compound 5, ((4S,4aR,8aR)-2-Hydroxy-3-oxodecahydroisoquinolin-4-yl)phosphonic acid] | – | > 25 | –
